Holding throughout (assay type): in vivo, human
Assay [1] has as its system OVCAR-5 (zipCaspase3) cells. Put plainly: Live confocal imaging of BiTE-induced apoptosis with zipCaspase 3 reporter in zebrafish. As to conditions: administered with T cells, live confocal microscopy. As to the method: Next, it was investigated whether the rag2^null/null; Il2rga−/− zebrafish are able to be used to directly visualize tumor cell killing at single cell resolution following BiTE therapy in vivo. To do so, OVCAR-5 ovarian cancer cells were engineered to express a zipCaspase 3 construct, where live tumor cells constitutively express mCherry, but express zipGFP only when undergoing apoptosis (FIG. 7A-FIG. 7E).
Imaging of peri-ocular transplanted cells was performed using an inverted LSM 710 confocal microscope. Engrafted zebrafish were anesthetized using […] tricaine and placed into a 12-mm glass-bottom dish for imaging. Serial z-stack imaging was carried out using a 10× objective (NA 0.45). In vivo direct visualization of Car T-cell interaction with tumor cells, cell apoptosis with zipGFP caspase 3 reporter, and visualization of therapy target specificity was carried out by serial z-stack imaging using 405 nm (emission […]), 488 nm (emission=493-586 nm) and 546 nm laser (emission=575-703 nm). Animals were imaged at 6 dpt prior to administration of immunotherapy. […] Quantification of distance between tumor cells and Car T-cells was analysed using distance between surface and spot plugin. Images were manually annotated from Imaris files (n=100 cells per timepoint analyzed from n≥3 animals) and quantified using the Fisher's Exact Test or T-test.

The test system of assay [2] is OVCAR-5 (EPCAM+) cancer cells. The assay is described as follows: BiTE therapy of engrafted tumor in zebrafish. As to conditions: rag2null/null; Il2rga-/- zebrafish, co-administered with CD8+ T cells after 7 days of engraftment. The source says:
(§1) To investigate if the rag2^null/null; Il2rga−/− animals can be used in the context of evaluating BiTE therapy efficiency, GFP-expressing OVCAR-5 (EPCAM+) cancer cells were first engrafted into mutant zebrafish. Following 7 days of engraftment, CD8+ T cells were co-administered with a control EPCAM antibody, a non-specific CD19 targeting BiTE (blinatumomab), or an EPCAM targeting BiTE (solitomab). […] In a similar experiment, animals engrafted with CD19-expressing leukemia cell line (K562-CD19) cells were killed off by coadministration of CD8+ T cells and blinatumomab (FIG. 4A-FIG. 4F).
(§2) Human cancer cells were grown to 90% confluence in a T75 cell culture flask, trypsinized, counted and resuspended at 2.5×10^7 cells/ml in Matrigel. Clondronate liposomes were added to the injection mix to inhibit early macrophage ingestion of engrafted cells over the first 7 days. […] Human CD8+ T cells, CMV-primed T cells and Car T cells were grown in 24 well plate at a density of 1×10^6 cells/ml, harvested, counted and resuspended at 5×10^7 cells/ml in T cell media. […] Cancer cell engraftment was assessed using epifluorescence whole animal microscopy (Olympus MVX10), with average GFP intensity measured using ImageJ. Growth was measured in relation to GFP intensity observed immediately after IP injection or by individual count of GFP+ cells over time. […]

For assay [3], the system named is CD19-expressing leukemia cell line (K562-CD19). Put plainly: BiTE therapy of engrafted leukemia cells in zebrafish. As to conditions: rag2null/null; Il2rga-/- zebrafish, coadministration of CD8+ T cells.
From the text: as §1, §2

As to solitomab, in assay [1], the “cell apoptosis quantified in vivo (zipGFP)” value is recorded as “significant induction of cell apoptosis”. Further, the overall tumor growth entry in assay [2] was “undergo cell killing and suppress tumor growth”.

On to blinatumomab, for which, in assay [2], the overall tumor growth result is given as “did not alter overall OVCAR-5 tumor growth”. Further, in assay [3], the “killing of engrafted cells” value was “killed off”.

These data come from patent US20220256821A1, “ZEBRAFISH DELETION AND COMPOUND MUTANTS AND USES THEREOF” (The General Hospital Corporation, priority 2019, published 2022).
